The assay deals with Lmna^G609G/G609G fibroblasts. As to the kind of experiment: RT-qPCR of senescence markers in mouse progeroid cells. It is filed as cell-based. To be noted: 5 µM. On the procedure:
Confocal fluorescence microscopy images are representative of 2 independent experiments. […] Representative cropped immunoblots are shown. […] MW, molecular weight (in kDa) markers. (C) PROTAC 2 decreases senescence‐associated β‐galactosidase (SA‐βgal) activity, interleukin (IL) 1α and p16 senescent markers. Lmna^G609G/G609G (G609G) or Lmna^+/+ (WT) fibroblasts were incubated with vehicle or compound 2 (5 µM). […] Data were analysed using one‐way ANOVA followed by Dunnett's post–hoc test. ^*, p < 0.05; ^**, p < 0.01, ^***, p < 0.001, ^****, p < 0.0001 vs G609G cells. […]
ferrocyanide, 0.6 mL 5 M NaCl, 0.2 mL 0.2 M MgCl2, (all from Sigma Aldrich) and 6.2 mL of deionized water in a total volume of 20 mL] in the dark in a humidified incubator at 37 °C for 24 h without CO2 supply. Then, an equal volume of the supernatant of each well was transferred to a new 96-well plate for fluorescence measurement. The resultant production of fluorescein was measured using a FluoStar Optima instrument (BMG Labtech) with an excitation of 485 nm and emission at 535 nm. […]
Total RNA was extracted by RNAeasy Mini Kit (Qiagen) according to the manufacturer instructions and subsequently quantified using the NanoPhotometer N60 (Implen). […] Quantitative real-time PCR was run in the QuantStudio 7FLEX (Applied Biosystems) system and results were normalized according to β-actin quantification. […]
For orientation: In qPCR the cycle at which signal appears reflects the starting amount.

Take `CC1(C)Oc2cc3oc(=O)ccc3cc2C[C@@H]1OC(=O)CCCCCNc1cccc2c1C(=O)N(C1CCC(=O)NC1=O)C2=O` (some centres unmarked) [compound 2]: the “interleukin (IL) 1α senescent marker” value was “significantly reduced” and the p16 senescent marker result was “significantly reduced”.

(Values after article PMC13252604, “First Generation Proteolysis Targeting Chimeras (PROTACs) for the Treatment of Progeria” (Advanced Science, 2026).)
